SMILES strings stand for the structures. Where two headings read alike, the source gives them in different places.

What all share (type): in vivo
The nature of data set [1]: Vancomycin concentration in blood/serum of human participants (blood draws). As to conditions: blood, iv, 1 gram, single 1 gram IV infusion over 1 hour 40 minutes. How it is done:
These human studies were performed at Monash Health, Monash Medical Centre, Clayton, Victoria 3168, Australia, under protocol reference number 2021/ETH80521 and protocol trial identified and registry 80521. Institutional Ethics Committee approval was obtained before commencement of the study.
(§1) 30 minutes (+15 minutes) post-application of the device, the participant received a single dose of vancomycin as an intravenous infusion (1 gram over 1 hour 40 minutes). The time of administration and completion of infusion was recorded.
Blood samples for the measurement of vancomycin concentrations were collected prior to the administration of vancomycin infusion, 30 minutes (±5 minutes) and 1 hour (±10 minutes) during the infusion, at the end of the infusion (±15 minutes) and then at 40 minutes (±15 minutes), 1.5 hours (±15 minutes), 2 hours (±15 minutes), 3 hours (±15 minutes), 4 hours (±15 minutes), 6 hours (±15 minutes), 8 hours (±15 minutes) and 10 hours (±15 minutes) after the infusion has been completed.
These human studies characterised perfusion dynamics. The study was performed in relation to a 1000 mg vancomycin dose administered via venous infusion.
ISF dynamics are captured in real-time high resolution (every 5 minutes) detection of vancomycin concentration. […] In comparison to blood (Cmax, ~30 mg/L) very little vancomycin was monitored in the ISF compartment (Cmax~6 mg/L) which is interpreted as a low level of perfusion

The nature of data set [2]: Vancomycin concentration in dermal interstitial fluid (ISF) of human participants by wearable EAB sensor. As to conditions: 1 gram; for Kp: dermal interstitial fluid (ISF) relative to blood, intravenous, read-out: Proportion of vancomycin monitored in ISF compartment in comparison to blood; for Cmax: dermal interstitial fluid (ISF), iv, read-out: Cmax in ISF compartment.
Excerpt: These human studies followed vancomycin levels using an EAB sensor (which may also be referred to as the “device”). The device was a self-contained wearable EAB sensor, constructed, having an on-board power supply, electrodes, and electronics, including a microprocessor and BlueTooth™ communications module.
The EAB sensor comprised four electrodes: two aptamer-coated working electrodes, a counter electrode, and a reference electrode. All electrodes were in the form of a microneedle configured to pierce the skin and contact the participant's ISF when fully inserted into the dermal tissues.
Each working electrode was coated with a vancomycin-sensitive single-stranded DNA-aptamer having a length of 28 nucleobases, obtained from Dr. Milan STOJANOVIC, New York campus research laboratory of The Trustees of Columbia University in the City of New York of 80 Claremont Avenue, 4th Floor, New York, NY 10027, United States.
A vancomycin-sensitive EAB sensor was placed onto the participant's upper arm (see FIG. 20), opposite the arm where vancomycin was being infused. The time of device application was recorded. The device was applied 30 minutes (+15 minutes) prior to administering the vancomycin infusion and the device was removed up to 10 hours post-cessation of the infusion.
as §1
Once applied to the participant, the DNA-based sensor electrodes were interrogated, and output treated as follows.
Square Wave Voltammetry (SWV) was used to interrogate the DNA-based sensor electrodes. Multiple steps were performed to convert the raw voltammograms obtained from the DNA-based sensor electrodes into a vancomycin concentration. The steps detailed below convert the raw SWV voltammograms into a signal that is indicative of the analyte concentration. • 1. Smooth the raw SWV voltammogram current versus voltage data to aid identification of the current peak and its magnitude. • 2. Apply a peak finding algorithm to the smoothed voltammogram to identify the position of the peak and to subtract a baseline current to determine a peak current magnitude. • 3. Use the determined peak currents magnitudes obtained at two different SWV interrogation frequencies (in this case 50 Hz and 300 Hz), when no vancomycin is present and when it is present to calculate an analyte concentration responsive signal (S). • 4. Smooth the S values over time, prior to applying a calibration function.
Steps 1 to 3 were used to analyse the calibration data as detailed below at (a) and (b), and steps 1 to 4 above in relation to the clinical data. • (a) Calibration data was produced from in vitro testing, where vancomycin is spiked into bovine plasma and tested using electrodes from the same production batch as those used in the clinical experiments (but not the electrode actually used in the clinical experiments). The purpose of this testing was to produce S versus known vancomycin concentration data that can be used to produce a calibration function to convert the S values into the corresponding measured vancomycin concentration values ([V]). • (b) Clinical experiment data, where the calibration function determined in (a) is applied to the S values produced by the in vivo electrodes in the clinical experiment, to convert them to measured vancomycin concentrations. […]

A short description of data set [3]: Skin surface temperature / adverse event monitoring of human participants during vancomycin infusion. As to conditions: for Physiologic response (skin surface temperature): temperature every 5 minutes. The source says:
Reference is made to FIG. 21A and FIG. 21B each showing a computer-rendered representation of the device (10) used in these studies, indicating one of the microneedles (30), the power supply, being a battery (105), a printed circuit board (110) having various electronic components such as the communications module and microprocessor mounted thereon, and a thermistor (115) functioning to contact the skin surface of the participant and provide an estimation of the temperature of the underlying ISF.
Participants were monitored throughout the study duration for any adverse events. Given the duration of the study visit, participants were required to stay overnight. In the absence of any adverse events, participants were discharged the following morning after being observed for at least 15 minutes post removal of the device.
The EAB sensor used in these studies penetrated 1-2 mm into the dermal interstitial compartment with micron diameter electrodes coated with a specific DNA sequence for vancomycin detection. Additionally, the EAB sensor continuously monitored (every 5 minutes) surface temperature where the normal temperature range for a human is characterised between 31-35.5° C.

Setting [4] is: participant 014 (hyper-perfusion phenotype).

Regarding `CN[C@H](CC(C)C)C(=O)N[C@H]1C(=O)N[C@@H](CC(N)=O)C(=O)N[C@H]2C(=O)N[C@H]3C(=O)N[C@H](C(=O)N[C@H](C(=O)O)c4cc(O)cc(O)c4-c4cc3ccc4O)[C@H](O)c3ccc(c(Cl)c3)Oc3cc2cc(c3O[C@@H]2O[C@H](CO)[C@@H](O)[C@H](O)[C@H]2O[C@H]2C[C@](C)(N)[C@H](O)[C@H](C)O2)Oc2ccc(cc2Cl)[C@H]1O` [vancomycin], the Cmax – broadly, the maximum level reached in the sampled fluid or tissue – in data set [1] (participant 012 (hypo-perfusion phenotype), 12 blood draws over 12 hours) was about 30000 ng/mL; in data set [1] (setting [4]) it was about 35000 ng/mL; in data set [1] (participant 015 (moderate-perfusion phenotype), 12 blood draws over 12 hours), about 30000 ng/mL; in data set [2] (participant 012 (hypo-perfusion phenotype), EAB sensor 812, single 1 gram IV infusion, read every 5 minutes), about 6000 ng/mL; in data set [2] (participant 014 (hyper-perfusion phenotype), EAB sensor 810, single 1 gram IV infusion), about 10000 ng/mL; in data set [2] (participant 015 (moderate-perfusion phenotype), EAB sensor 818, single 1 gram IV infusion, read every 5 minutes), about 10000 ng/mL. Besides, the Kp in data set [2] (setting [4]) is about 0.86; in data set [2] (participant 015 (moderate-perfusion phenotype)), about 0.3. For the same molecule, the “Physiologic response (skin surface temperature)” value in data set [3] (participant 012, no elevations above 36° C.) is reported as “no physiologic response”; in data set [3] (participant 015), “no elevations depicting a physiological response”. For the same molecule, in data set [3] (participant 014, temperature elevations above 36° C. recorded, antihistamine treatment required), the “Adverse reaction to vancomycin” value was “sensitivity response to vancomycin which resulted in hives and itching”.

These data come from patent US20260212981A1, “Methods of drug dosing based on early pharmacokinetics” (NUTROMICS […] LTD, priority 2022, published 2026).
